{"source": "patent US10845371B2", "about": "“Soluble MANF in pancreatic beta-cell disorders” (University of Massachusetts, priority 2012, dated 2020)", "key": {"INS-1 832/13 cells [1]": {"tested_on": "INS-1 832/13 cells", "assay": "Percentage of dead cells in thapsigargin-treated INS-1 832/13 cells", "format": "cell-based, rat", "protocol": "(§1) FIG. 38 is two graphs showing the percentage of dead cells (left graph) or the median MEROS-GFP ratio (right graph) of INS-1 832/13 cells treated with DMSO alone, 10 nM thapsigargin (Tg), 10 nM Tg and 10 μM pioglitazone, or 10 nM Tg and 500 μg/mL tauroursodeoxycholic acid (TUDCA).\nFIG. 43 is a graph of the percentage of dead cells following no treatment or treatment with 10 nM thapsigargin (Tg) or treatment with 10 nM Tg and 10 nM apomorphine."}, "[2]": {"tested_on": "MEROS-GFP (ER redox state) in INS-1 832/13 cells", "assay": "Median MEROS-GFP ratio in thapsigargin-treated INS-1 832/13 cells", "format": "cell-based, rat", "conditions": "10 nM thapsigargin; 10 μM pioglitazone or 500 μg/mL TUDCA, FIG. 38 right panel", "protocol": "as §1\nTo investigate this possibility, two FDA-approved drugs, pioglitazone (Actos) and tauroursodeoxycholic acid (TUDCA), could affect the ER redox state and ameliorate cell death in cellular models of ER diseases. […] Another small molecule, TUDCA, has been used for treatment of gallstones and biliary cirrhosis and shown to mitigate ER stress in mouse models of diabetes."}, "[3]": {"tested_on": "WFS1-knockdown β-cells (INS-1 832/13-derived)", "assay": "Doxycycline-inducible WFS1 knockdown INS-1 832/13 cells, cellular model of Wolfram syndrome", "format": "cell-based, rat", "conditions": "2 μM doxycycline shWFS1; 10 nM apomorphine or 10 μM pioglitazone, FIG. 44", "protocol": "(§2) FIG. 44 are two immunoblots showing the amount of cleaved caspase 3 (c-caspase3) and cleaved PARP (c-PARP) present in 10 nM thapsigargin-treated primary human islets (right immunoblot) and 2 μM doxycycline-treated WFS1 knockdown INS-1 832/13 cells (shWFS1) (left immunoblot) treated with 10 nM apomorphine or 10 μM pioglitazone.\nAdditional experiments were performed using INS-1 832/13-derived doxycycline-inducible WFS1 knockdown cells, a cellular model of Wolfram syndrome. This model was used to test whether apomorphine and pioglitazone could prevent cell death."}, "INS-1 832/13 cells [4]": {"tested_on": "INS-1 832/13 cells", "assay": "Mitochondrial membrane potential (MitoProbe staining) after palmitate", "format": "cell-based, rat", "conditions": "0.5 mM palmitate; 10 nM or 50 nM apomorphine, FIGS. 41 and 42"}, "INS-1 832/13 cells [5]": {"tested_on": "INS-1 832/13 cells", "assay": "Cell viability (propidium iodide) after palmitate", "format": "cell-based, rat", "conditions": "0.5 mM palmitate and 10 nM apomorphine, FIG. 42"}, "[6]": {"tested_on": "INS-1 832/13 cells expressing MEROS-GFP", "assay": "Reduced-ER cell population (MEROS-GFP FACS) after palmitate challenge", "format": "cell-based, rat", "conditions": "apomorphine 24 hours (10 μM per FIG. 40), then 0.5 mM palmitate 24 hours"}, "human islets": {"tested_on": "human islets", "assay": "Thapsigargin-mediated cell death in primary human islets (cleaved caspase 3 / PARP immunoblot)", "format": "cell-based", "conditions": "10 nM thapsigargin; 10 nM apomorphine or 10 μM pioglitazone, FIG. 44", "protocol": "as §2\nAdditional experiments were performed to determine whether apomorphine and pioglitazone can protect human islets from ER stress-mediated cell death."}, "INS-1 832/13 cells [7]": {"tested_on": "INS-1 832/13 cells", "assay": "Toxicity on INS-1 832/13 cells", "format": "cell-based, rat"}, "[8]": {"tested_on": "MEROS-GFP (ER redox state) in INS-1 832/13 cells", "assay": "MEROS-GFP pilot screen of 1280-compound library and follow-up screens", "format": "cell-based, rat", "conditions": "DTT screen, 0.4 mM palmitate + 20 mM glucose screen, FACS confirmation with 0.5 mM palmitate", "quoted_text": "A pilot screen of a 1280-compound library (MicroSource), a collection of 1,040 U.S. drugs and 240 international drugs (FIG. 39) was performed. In this experiment, INS-1 832/13 cells stably-expressing MEROS-GFP were seeded (20,000 cells/well) in black optical 96-well plates. After 24 hours, 2 μL of each compound was added using the TeMo liquid handling robot. After another 24 hours, cells were challenged with 0.2 mM DTT, a strong reducing agent, for 2 hours, and then the MEROS-GFP ratio was calculated."}, "[9]": {"tested_on": "INS-1 832/13 cells (a pancreatic β-cell line)", "assay": "Reduced MEROS-GFP by FACS in INS-1 832/13 cells in high glucose with soluble MANF", "format": "cell-based, rat", "conditions": "25 mM glucose; 0.5 μg/mL soluble MANF (48 hours per FIG. 45)", "protocol": "FIG. 45 is a graph of fluorescence-assisted cell sorting data showing the percentage of INS1 832/13 cells (pancreatic (3 cell line) containing the reduced form of EroGFP in the endoplasmic reticulum following culture in 11 mM glucose or 25 mM glucose (24 hours) (top panels and bottom panels, respectively), and treatment with 0 or 0.5 μg/mL soluble MANF for 48 hours (left panels and right panels, respectively). The cells were excited using a wavelength at 473 nm and an emission spectrum of 510 nm.\nFurther experiments were performed to determine whether soluble MANF can prevent fluctuations in the redox environment in the endoplasmic reticulum of pancreatic β-cells upon exposure to an agent that induces endoplasmic reticulum stress. Experiments were performed using INS-1 832/13 cells (a pancreatic β-cell line) transfected with a lentivirus vector expressing MEROS-GFP. The cells were cultured in 11 mM or 25 mM glucose, and either left untreated or treated with 0.5 μg/mL soluble MANF. The cells were then analyzed using FACS analysis using an excitation spectrum between 460-495 nm and an emission spectrum of between 520-570 nm (FITC-A optical filter) which allows for the specific detection of fluorescent emission from reduced EroGFP in the transfected cells."}, "[10]": {"tested_on": "mouse pancreatic β-cell line (MIN6)", "assay": "Cleaved caspase-3 immunoblot in MIN6 cells treated with tunicamycin and soluble MANF", "format": "cell-based", "conditions": "tunicamycin 1 μM, 24 hours; 0, 40 or 200 nM soluble MANF, FIG. 8", "protocol": "FIG. 8 is an immunoblot showing the levels of cleaved caspase-3 in a murine pancreatic β-cell line (MIN6) untreated or treated for 24-hours with 1 μM tunicamycin or 100 nM thapsigargin, and further treated with 0, 40, or 200 nM soluble MANF.\nAdditional experiments were performed to determine whether soluble MANF would decrease or delay endoplasmic reticulum stress-induced apoptosis in pancreatic β-cells treated with an endoplasmic reticulum stress-inducing chemical agent."}}, "data": [{"molecule": "C[C@H](CCC(=O)NCCS(=O)(=O)O)[C@H]1CC[C@H]2[C@@H]3[C@@H](O)C[C@@H]4C[C@H](O)CC[C@]4(C)[C@H]3CC[C@]12C", "note": "[TUDCA, tauroursodeoxycholic acid]", "values": [{"measurement": "Cell death (percentage of dead cells)", "setting": "INS-1 832/13 cells [1]; 10 nM thapsigargin, 10 μM pioglitazone or 500 μg/mL TUDCA, FIG. 38 left panel", "result": "protect cells from death under ER stress conditions"}, {"measurement": "ER redox state (median MEROS-GFP ratio)", "setting": "[2]", "result": "shift the ER towards an oxidizing environment"}]}, {"molecule": "CN1CCc2cccc3c2[C@H]1Cc1ccc(O)c(O)c1-3", "note": "[apomorphine]", "values": [{"measurement": "Cell death of WFS1-knockdown cells", "setting": "[3]", "result": "could protect WFS1-knockdown β-cells from cell death"}, {"measurement": "Cleavage of PARP (caspase 3 substrate)", "setting": "[3]", "result": "suppressed"}, {"measurement": "Cleavage of caspase 3", "setting": "[3]", "result": "suppressed cleavage of caspase 3"}, {"measurement": "Population with lower mitochondrial membrane potential", "setting": "INS-1 832/13 cells [4]", "result": "decreased the population with lower mitochondrial membrane potential"}, {"measurement": "Cell death (percentage of dead cells)", "setting": "INS-1 832/13 cells [1]; 10 nM thapsigargin and 10 nM apomorphine, FIG. 43", "result": "protected INS-1 832/13 cells from ER stress-mediated cell death"}, {"measurement": "ER stress-induced cell death (propidium iodide)", "setting": "INS-1 832/13 cells [5]", "result": "suppressed ER stress-induced cell death"}, {"measurement": "Population of cells that had reduced ER", "setting": "[6]", "result": "decreased the population of cells that had reduced ER"}, {"measurement": "Thapsigargin-mediated cell death", "setting": "human islets", "result": "could protect human islets from thapsigargin-mediated cell death"}]}, {"molecule": "COC1=CC(=O)C[C@@H](C)[C@]12Oc1c(Cl)c(OC)cc(OC)c1C2=O", "note": "[griseofulvin]", "values": [{"measurement": "Toxic effects on cells", "setting": "INS-1 832/13 cells [7]", "result": "strong toxic effects"}, {"measurement": "Outcome in the screening assays", "setting": "[8]", "result": "positively identified in the screening assays"}]}, {"molecule": "soluble MANF: soluble mammalian form of mesencephalic astrocyte-derived neurotrophic factor, e.g. human SEQ ID NO: 2; species of tested protein not stated (protein) LRPGDCEVCISYLGRFYQDLKDRDVTFSPATIENELIKFCREARGKENRLCYYIGATDDAATKIINEVSKPLAHHIPVEKICEKLKKKDSQICELKYDKQIDLSTVDLKKLRVKELKKILDDWGETCKGCAEKSDYIRKINELMPKYAPKAASARTDL", "values": [{"measurement": "Number of cells containing a detectable level of reduced MEROS-GFP", "setting": "[9]", "result": "decrease in the number of cells containing a detectable level of reduced MEROS-GFP"}, {"measurement": "Caspase-3 cleavage", "setting": "[10]", "result": "significantly reduced the amount of caspase-3 cleavage"}]}]}
